# In patent US20050165082A1, “Methods of treating vasomotor symptoms” (Wyeth, priority 2003, published 2005):
# Entries after “also recorded” stand apart in the source; their conditions may differ.
# Columns and labels:
# [1] = test system: naloxone-induced flush in morphine-dependent ovariectomized rats; assay: Morphine-dependent rat model: naloxone-induced flush, tail skin temperature (TST); assay type: in vivo
# Procedure: (§1) Dosing: All doses were prepared based on mg/kg. All compounds were administered intraperitoneally and dissolved and used at the following dosages: SSR149415 (V1b receptor antagonist, 3.0-30 mg/kg was dissolved in 5% DMSO in 5% Cremophor EL). SSR49059 (V1a receptor antagonist, 30 mg/kg was dissolved 10% DMSO/sterile H2O) and VPA-985 (V2 receptor antagonist, 30 mg/kg was dissolved 10% DMSO/sterile H2O). Naloxone (1.0 mg/kg was dissolved in sterile H2O) was injected subcutaneously.
# Animals: Ovariectomized Sprague-Dawley rats (180-220 g) were obtained from a commercial vendor (Taconic, Germantown, N.Y.) and individually housed under 12 hours light/dark cycle in a room maintained at 25° C. Animals were provided with standard rat chow and water ad libitum.
# Morphine-dependent model: Ovariectomized rats were injected once daily for 8-9 days with vehicle to minimize stress responses and then administered compound(s) on test day (10 rats/group). On day 4 of vehicle dosing, morphine dependence was induced by sc implantation of two slow-release morphine pellets (75 mg/pellet) in the dorsal scapular region. This model is based upon an established morphine-dependent naloxone-induced flush paradigm that is reversible by estrogen treatment (Katovich et al., Proceedings of the Society for Experimental Biology & Medicine, 1990. 193(2): p. 129-35). Four to six days after implantation, morphine withdrawal was induced with an opioid antagonist (naloxone) that causes a transient increase in TST. In a typical experiment, rats were administered their final dose of test compound 40 minutes prior to naloxone injection. Rats were mildly sedated with ketamine and a thermistor connected to a MacLab data acquisition system (CB Sciences, Dover, N.H.) was taped to the base of the tail. Tail skin temperature was then monitored continuously for 10 minutes to establish a baseline temperature. Naloxone was subsequently administered and TST was measured for an additional […] (total recording time 95 min).
# Statistical analysis: To analyze changes in TST induced by naloxone in morphine-dependent rats, all data was analyzed using a two factors repeated measure. The factors were “treatment” and “time” (repeated). The model was fit to test whether there were significant differences in the responses between treatment groups. The data was analyzed at 5 minute intervals from 20 minutes (−20) prior to the naloxone administration (referred to as time 0) to 60 minutes after the treatment. Multiple comparisons (LSD p-values) among the treatment groups at each time point were used for the analysis, however, the changes in TST is greatest at 15 minutes post naloxone administration and this time point provides the best indicator of flush abatement. When appropriate estimation of the ED50 value was calculated. The ED50 value was determined using a log scale and the line was fit between the maximal (15 minutes post naloxone ΔTST) and minimal response (average baseline temperature prior to naloxone). The ED50 value is reported as the dose of test compound that abates 50% of the naloxone-induced flush.
# Method used as described in the general method section under morphine-dependent rat model with the following exceptions: in the morphine-dependent model rats were injected intraperitoneally with vehicle (5% DMSO in 5% Cremophor EL) or SSR149415 (V1b receptor antagonist) which may be prepared as described in WO 01/55134, dissolved in 5% DMSO in 5% Cremophor EL and administered at 3.0 and 30 mg/kg 40 minutes prior to naloxone injection (FIGS. 1A and 1B). […] At the highest dose (30 mg/kg) tested antagonism of the V1b receptor produced a 60% abatement of the naloxone-induced flush. […]
# [2] = test system: tail skin temperature in ovariectomized rats; assay: OVX-induced thermoregulatory dysfunction telemetry model (TST); assay type: in vivo, rat; settings: 30 mg/kg intraperitoneal, 30 minutes prior to onset of dark cycle
# Procedure: as §1
# Animals: Ovariectomized Sprague-Dawley rats (180-220 g) were obtained from a commercial vendor (Taconic, Germantown, N.Y.) and individually housed under 12 hours light/dark cycle in a room maintained at 25° C. […]
# OVX-induced thermoregulatory dysfunction telemetry model: To determine the effect that test compounds had on thermoregulation, TST was monitored in ovariectomized rats by telemetry (6-7 rats/group). […] After a 7 day recovery period rats were administered a vehicle injection and TST monitored continuously for 12 hours (Day 1). Twenty-four hours later rats were administered either vehicle or test compound and TST monitored continuously for 12 hours (Day 2). […]
# To analyze changes in TST induced by test compounds in the thermoregulatory dysfunction model a 2-day paradigm was used. […] On Day 2, test compound is administered and TST readings are recorded every 30 minutes as described above. […]
# [3] = 30 mg/kg intraperitoneal, 15 minutes post-naloxone
SMILES,"effect on naloxone-induced flush at maximal flush (ΔTST) [1, 3]","effect on naloxone-induced flush at maximal flush (ΔTST) ([1]; 3.0 mg/kg intraperitoneal, 15 minutes post-naloxone)","abatement of the naloxone-induced flush ([1]; 30 mg/kg intraperitoneal (highest dose), 40 minutes prior to naloxone)","changes in TST over time, naloxone-induced flush ([1]; 3.0 and 30 mg/kg intraperitoneal, 40 minutes prior to naloxone)","ED50 ([1]; Rattus norvegicus, ip, intraperitoneal, 40 minutes prior to naloxone, maximal flush, 15 minutes post-naloxone, read-out: ED50 value, abatement of naloxone-induced flush)","change in TST (ΔTST) relative to vehicle, active phase [2]"
Cc1ccc(F)cc1C(=O)Nc1ccc(C(=O)N2Cc3cccn3Cc3ccccc32)c(Cl)c1 [VPA-985],lack efficacy in attenuating the naloxone-induced flush; also recorded: failed to abate the naloxone-induced flush,–,–,–,–,–
"COc1ccc(S(=O)(=O)N2C(=O)C(c3ccccc3OC)(N3C[C@H](O)C[C@H]3C(=O)N(C)C)c3cc(Cl)ccc32)c(OC)c1 (stereo partly drawn) [SSR149415, (2S,4R)-1-[5-Chloro-1-[(2,4-dimethoxyphenyl)-sulfonyl]-3-(2-methoxy-phenyl)-2-oxo-2,3-dihydro-1H-indol-3-yl]-4-hydroxy-N,N-dimethyl-2-pyrrolidine carboxamide]",significantly and dose-dependently abated the naloxone-induced flush,no effect,60%,dose-dependently abates the naloxone-induced flush,12.1 mg/kg,significant decrease in ΔTST; also recorded: able to restore normal thermoregulation; also recorded: significantly and transiently decreased TST
COc1ccc(S(=O)(=O)N2c3ccc(Cl)cc3[C@](O)(c3ccccc3Cl)[C@@H]2C(=O)N2CCC[C@H]2C(N)=O)cc1OC [SR49059],lack efficacy in attenuating the naloxone-induced flush; also recorded: failed to abate the naloxone-induced flush,–,–,–,–,–
